Measurements as given in US9861616B2, “Methods for treating respiratory diseases and formulations therefor” (priority 2013, dated 2018).

Key:
IL-8 (CXCL8) release = assay: LPS-induced IL-8 (CXCL8) release in PMA-differentiated U937 cells (ELISA); type: cell-based, human
Procedure: Effects of macrolides on lipopolysaccharide (LPS)-induced CXCL8 release in PMA-differentiated U937 cells. […] LPS-induced CXCL8 release was evaluated by ELISA. Values represent means of three experiments±SEM. ^##p<0.01 (vs. non-treatment control), *p<0.05, **p<0.01 (vs. treatment with LPS only).
(§1) The human monocytic cell line U937 was obtained from the American Type Culture Collection (ATCC, Rockville, Md.). PBMCs from COPD patients were obtained from Brompton hospital and separated by AccuSPIN (Sigma-Aldrich). Cells were cultured in complete growth medium (RPMI 1640) (Sigma-Aldrich) supplemented with 10% fetal bovine serum (FBS) and 1% L-glutamine at 37° C. in a humidified atmosphere with 5% CO2. U937 cells were differentiated into adherent macrophage-like morphology by exposure to PMA (50 ng/mL) for 48 hrs in complete growth medium. Cell viability was assessed microscopically by trypan blue staining. Cell toxicity was determined by MTT assay as needed. This study was approved by the ethics committee of the Royal Brompton Hospitals, and all subjects gave written informed consent.
(§2) TNFα and IL-8 concentrations in the supernatant of cell cultures were determined by sandwich ELISA according to the manufacturer's instructions (R&D Systems Europe, Abingdon, UK).
(§3) The results were expressed as the mean±SEM. Comparisons of data in two groups were performed using the Student's t test or the Wilcoxon signed rank test. Multiple comparisons were made by one-way ANOVA with post hoc test (Dunnett's) as appropriate. The difference was considered significant at p<0.05. IC50 values (50% inhibitory concentration) for macrolides for production of cytokines or MMP9 were calculated using Prism 4.0 (GraphPad Software Inc., San Diego, Calif.).

P. aeruginosa PA12 = assay: MIC by microdilution with PaβN or EGTA, clinical isolate overexpressing efflux pumps; type: cell-based
Procedure: (§4) MICs of 36 clinical and laboratory strains of PA with known efflux phenotype are measured by microdilution in cation-adjusted Muller-Hinton broth (CA-MHB) or in RPMI medium (commonly used in eukaryotic cell culture). Phe-Arg-β-naphthylamide (PaβN, 50 mg/L) and EGTA 5 mM are used to inhibit efflux pumps and alter OM integrity, respectively. P. aeruginosa strain ATCC PAO1 is used as reference. PA12 is a clinical strain overexpressing the 4 main efflux systems (MexAB, MexCD, MexEF, MexXY), PA403 is a laboratory strain deleted in the genes coding for the 4 efflux systems. A series of reference strains or of clinical isolates for which the expression of genes coding for efflux pumps is known is also used for MICs determinations. MICs are measured by microdilution in MH broth or in RPMI medium (used for eukaryotic cells culture) supplemented with 10% of fetal calf serum, or in MH broth supplemented by increasing amounts of serum. EGTA (5 mM) was used as a chelating agent (disrupting outer membrane integrity) and PaβN (50 mg/L) as an unspecific efflux inhibitor.

TNFα release = assay: LPS-induced TNFα release in PMA-differentiated U937 cells (ELISA); type: cell-based, human
Procedure: Effects of macrolides on lipopolysaccharide (LPS)-induced TNFα release in PMA-differentiated U937 cells. […] LPS-induced TNFα release was evaluated by ELISA. Values represent means of three experiments±SEM. ^##p<0.01 (vs. non-treatment control), *p<0.05, **p<0.01 (vs. treatment with LPS only).
as §1, §2, §3

P. aeruginosa (PA) = assay: MIC by microdilution, 36 clinical and laboratory strains with known efflux phenotype; type: cell-based
Procedure: as §4

CC[C@H]1OC(=O)[C@@](C)(F)C(=O)[C@H](C)[C@@H](O[C@@H]2O[C@H](C)C[C@H](N(C)C)[C@H]2O)[C@](C)(OC)C[C@@H](C)C(=O)[C@H](C)[C@H]2N(CCCCn3cc(-c4cccc(N)c4)nn3)C(=O)O[C@]12C [CEM-101, solithromycin]
128 µg/mL: MIC (P. aeruginosa (PA); strain 1, efflux AB+, MHB) | MIC (P. aeruginosa (PA); strain 4, efflux XY+, MHB) | MIC (P. aeruginosa (PA); strain 12, efflux AB + CD + EF + XY+, MHB) | MIC (P. aeruginosa (PA); strain 21, efflux AB+, MHB) | MIC (P. aeruginosa (PA); strain 48, efflux CD + EF + XY+, MHB) | MIC (P. aeruginosa (PA); strain 49, efflux CD + EF + XY+, MHB) | MIC (P. aeruginosa (PA); strain 168B, efflux CD + XY+, MHB) | MIC (P. aeruginosa (PA); strain 333A, efflux AB + EF+, MHB) | MIC (P. aeruginosa (PA); strain 335, efflux AB + EF+, MHB) | MIC (P. aeruginosa (PA); strain 434, efflux AB + CD + XY+, MHB) | MIC (P. aeruginosa (PA); strain PAO1, REFERENCE, MHB)
2 µg/mL: MIC (P. aeruginosa (PA); strain 1, efflux AB+, RPMI) | MIC (P. aeruginosa (PA); strain 11, efflux AB + CD+, RPMI) | MIC (P. aeruginosa (PA); strain 156, efflux EF + XY+, RPMI) | MIC (P. aeruginosa (PA); strain 333A, efflux AB + EF+, RPMI) | MIC (P. aeruginosa (PA); strain 335, efflux AB + EF+, RPMI) | MIC (P. aeruginosa (PA); strain 391, efflux EF−, RPMI) | MIC (P. aeruginosa (PA); strain 395, efflux HI−, RPMI) | MIC (P. aeruginosa (PA); strain 396, ompH−, RPMI) | MIC (P. aeruginosa (PA); strain 397, efflux AB−, MHB) | MIC (P. aeruginosa (PA); strain 398, efflux CD−, RPMI) | MIC (P. aeruginosa (PA); strain 401, ompH−, MHB) | MIC (P. aeruginosa (PA); strain 401, ompH−, RPMI)
significantly inhibited: effect on CXCL8 production (IL-8 (CXCL8) release; at 100 μM) | effect on TNFα production (TNFα release; at 100 μM)
32 mg/L: MIC (P. aeruginosa PA12; PA12, CA-MHB, control conditions (CT))
78.2 ± 9.5 µM: IC50 (IL-8 (CXCL8) release; PMA-differentiated U937 cells, read-out: IC50, LPS-induced IL-8 (CXCL8) release)
4 mg/L: MIC (P. aeruginosa PA12; PA12, CA-MHB, PaβN 50 mg/L) | MIC (P. aeruginosa PA12; PA12, RPMI, PaβN 50 mg/L) | MIC (P. aeruginosa PA12; PA12, RPMI, control conditions (CT))
8 µg/mL: MIC (P. aeruginosa (PA); strain 2, efflux CD+, RPMI) | MIC (P. aeruginosa (PA); strain 3, efflux EF+, MHB) | MIC (P. aeruginosa (PA); strain 396, ompH−, MHB) | MIC (P. aeruginosa (PA); strain 399, efflux AB − EF−, MHB) | MIC (P. aeruginosa (PA); strain 434, efflux AB + CD + XY+, RPMI)
256 µg/mL: MIC (P. aeruginosa (PA); strain 2, efflux CD+, MHB) | MIC (P. aeruginosa (PA); strain 41, efflux CD+, MHB) | MIC (P. aeruginosa (PA); strain 266B, efflux AB + CD+, MHB)
16 µg/mL: MIC (P. aeruginosa (PA); strain 11, efflux AB + CD+, MHB) | MIC (P. aeruginosa (PA); strain 392, efflux CD−, MHB)
1 mg/L: MIC (P. aeruginosa PA12; PA12, RPMI, EGTA 5 mM)
64 µg/mL: MIC (P. aeruginosa (PA); strain 22, efflux XY+, MHB) | MIC (P. aeruginosa (PA); strain 63, efflux AB + EF + XY+, MHB) | MIC (P. aeruginosa (PA); strain 68, efflux AB + XY+, MHB) | MIC (P. aeruginosa (PA); strain 133, efflux EF + XY+, MHB) | MIC (P. aeruginosa (PA); strain 156, efflux EF + XY+, MHB) | MIC (P. aeruginosa (PA); strain 395, efflux HI−, MHB)
16 mg/L: MIC (P. aeruginosa PA12; PA12, CA-MHB, EGTA 5 mM)
41.6 ± 1.9 µM: IC50 (TNFα release; PMA-differentiated U937 cells, read-out: IC50, LPS-induced TNFα release)
32 µg/mL: MIC (P. aeruginosa (PA); strain 16, efflux AB + XY+, MHB) | MIC (P. aeruginosa (PA); strain 40, efflux EF+, MHB) | MIC (P. aeruginosa (PA); strain 207, efflux AB + EF + XY+, MHB) | MIC (P. aeruginosa (PA); strain 391, efflux EF−, MHB) | MIC (P. aeruginosa (PA); strain 394, efflux XY−, MHB)
smaller difference: difference in MIC in the presence of efflux pump inhibitors (P. aeruginosa (PA); compared with the other macrolides, Table 2 strains)
1 µg/mL: MIC (P. aeruginosa (PA); strain 3, efflux EF+, RPMI) | MIC (P. aeruginosa (PA); strain 392, efflux CD−, RPMI) | MIC (P. aeruginosa (PA); strain 397, efflux AB−, RPMI) | MIC (P. aeruginosa (PA); strain 399, efflux AB − EF−, RPMI) | MIC (P. aeruginosa (PA); strain 400, efflux XY−, RPMI) | MIC (P. aeruginosa (PA); strain 403, efflux AB − CD − EF − XY−, RPMI) | MIC (P. aeruginosa (PA); strain 405, efflux AB − CD − EF − XY−, RPMI)
4 µg/mL: MIC (P. aeruginosa (PA); strain 4, efflux XY+, RPMI) | MIC (P. aeruginosa (PA); strain 12, efflux AB + CD + EF + XY+, RPMI) | MIC (P. aeruginosa (PA); strain 16, efflux AB + XY+, RPMI) | MIC (P. aeruginosa (PA); strain 21, efflux AB+, RPMI) | MIC (P. aeruginosa (PA); strain 22, efflux XY+, RPMI) | MIC (P. aeruginosa (PA); strain 40, efflux EF+, RPMI) | MIC (P. aeruginosa (PA); strain 41, efflux CD+, RPMI) | MIC (P. aeruginosa (PA); strain 48, efflux CD + EF + XY+, RPMI) | MIC (P. aeruginosa (PA); strain 49, efflux CD + EF + XY+, RPMI) | MIC (P. aeruginosa (PA); strain 63, efflux AB + EF + XY+, RPMI) | MIC (P. aeruginosa (PA); strain 68, efflux AB + XY+, RPMI) | MIC (P. aeruginosa (PA); strain 133, efflux EF + XY+, RPMI) | MIC (P. aeruginosa (PA); strain 168B, efflux CD + XY+, RPMI) | MIC (P. aeruginosa (PA); strain 207, efflux AB + EF + XY+, RPMI) | MIC (P. aeruginosa (PA); strain 266B, efflux AB + CD+, RPMI) | MIC (P. aeruginosa (PA); strain 394, efflux XY−, RPMI) | MIC (P. aeruginosa (PA); strain 398, efflux CD−, MHB) | MIC (P. aeruginosa (PA); strain 400, efflux XY−, MHB) | MIC (P. aeruginosa (PA); strain 403, efflux AB − CD − EF − XY−, MHB) | MIC (P. aeruginosa (PA); strain 405, efflux AB − CD − EF − XY−, MHB) | MIC (P. aeruginosa (PA); strain PAO1, REFERENCE, RPMI)
